Laboratory results published in patent US20060069132A1, “Azolecarboxamide herbicides” (priority 2004, published 2006).

Experiments:
barnyardgrass [1] = assay: Test B pre-/postemergence herbicide test; format: in vivo, Echinochloa crus-galli; conditions: for Plant response rating (0 to 100 scale), Barnyardgrass: 0 is no effect, preemergence
From the text: (§1) Seeds selected from barnyardgrass (Echinochloa crus-galli (L.) Beauv.), Surinam grass (Urochloa decumbens (Staph) R. D. Webster, previously named Brachiaria decumbens Stapf), cocklebur (Xanthium strumarium L.), corn (Zea mays L.), large crabgrass (Digitaria sanguinalis (L.) Scop.), giant foxtail (Setaria faberi Herim.), lambsquarters (Chenopodium album L.), morningglory (Ipomoea coccinea L.), pigweed (Amaranthus retroflexus L.), rice (Oryza sativa L.) and velvetleaf (Abutilon theophrasti Medik.) were planted and treated preemergence with test chemicals formulated in a non-phytotoxic solvent mixture which included a surfactant.
(§2) At the same time, plants selected from these crop and weed species and also blackgrass (Alopecurus myosuroides Huds.), wheat (Triticum aestivum L.) and wild oat (Avena fatua L.) were treated with postemergence applications of test chemicals formulated in the same manner. Plants ranged in height from 2 to 18 cm (1- to 4-leaf stage) for postemergence treatments. Plant species in the flooded paddy test consisted of rice (Oryza sativa L.), small flower umbrella sedge (Cyperus difformis L.), ducksalad (Heteranthera limosa (Sw.) Willd.) and barnyardgrass (Echinochloa crus-galli (L.) Beauv.) grown to the 2-leaf stage for testing. Treated plants and controls were maintained in a greenhouse for 13 to 15 days, after which time all species were compared to controls and visually evaluated. Plant response ratings, summarized in Table B, are based on a scale of 0 to 100 where 0 is no effect and 100 is complete control. A dash (-) response means no test result.

Surinam grass = assay: Test B pre-/postemergence herbicide test; format: in vivo, Urochloa decumbens; conditions: for Plant response rating (0 to 100 scale), Surinam Grass: 0 is no effect, 100 is complete control, preemergence; for Surinam Grass plant response rating: scale 0 (no effect) to 100 (complete control)
From the text: as §1, §2

cocklebur = assay: Test B pre-/postemergence herbicide test; format: in vivo, Xanthium strumarium; conditions: for Plant response rating (0 to 100 scale), Cocklebur: 0 is no effect, preemergence
From the text: as §1, §2

corn = assay: Test B pre-/postemergence herbicide test; format: in vivo, Zea mays; conditions: for Plant response rating (0 to 100 scale), Corn: 0 is no effect, preemergence
From the text: as §1, §2

large crabgrass = assay: Test B pre-/postemergence herbicide test; format: in vivo, Digitaria sanguinalis; conditions: for Plant response rating (0 to 100 scale), Crabgrass, Large: 0 is no effect, preemergence
From the text: as §1, §2

giant foxtail = assay: Test B pre-/postemergence herbicide test; format: in vivo, Setaria faberi; conditions: for Plant response rating (0 to 100 scale), Foxtail, Giant: 0 is no effect, preemergence
From the text: as §1, §2

lambsquarters = assay: Test B pre-/postemergence herbicide test; format: in vivo, Chenopodium album; conditions: for Plant response rating (0 to 100 scale), Lambsquarters: 0 is no effect, 100 is complete control, preemergence; for Lambsquarters plant response rating: scale 0 (no effect) to 100 (complete control)
From the text: as §1, §2

morningglory = assay: Test B pre-/postemergence herbicide test; format: in vivo, Ipomoea coccinea; conditions: for Plant response rating (0 to 100 scale), Morningglory: 0 is no effect, 100 is complete control, preemergence; for Morningglory plant response rating: scale 0 (no effect) to 100 (complete control)
From the text: as §1, §2

pigweed = assay: Test B pre-/postemergence herbicide test; format: in vivo, Amaranthus retroflexus; conditions: for Plant response rating (0 to 100 scale), Pigweed: 0 is no effect, 100 is complete control, preemergence; for Pigweed plant response rating: scale 0 (no effect) to 100 (complete control)
From the text: as §1, §2

velvetleaf = assay: Test B pre-/postemergence herbicide test; format: in vivo, Abutilon theophrasti; conditions: for Plant response rating (0 to 100 scale), Velvetleaf: 0 is no effect, 100 is complete control, preemergence; for Velvetleaf plant response rating: scale 0 (no effect) to 100 (complete control)
From the text: as §1, §2

blackgrass = assay: Test B postemergence herbicide test; format: in vivo, Alopecurus myosuroides
Procedure: as §2

wheat = assay: Test B postemergence herbicide test; format: in vivo, Triticum aestivum; design: key to Wheat plant response rating: 0 = no effect, 100 = complete control
Procedure: as §2

wild oat = assay: Test B postemergence herbicide test; format: in vivo, Avena fatua; conditions: scale 0 (no effect) to 100 (complete control)
Procedure: as §2

rice = assay: Test B flooded paddy test; format: in vivo, Oryza sativa; conditions: 1000 g ai/ha, scale 0 to 100 (0 no effect, 100 complete control)
Procedure: as §2

[2] = test system: small flower umbrella sedge; assay: Test B flooded paddy test; format: in vivo, Cyperus difformis; conditions: 1000 g ai/ha, scale 0 to 100 (0 no effect, 100 complete control)
Procedure: as §2

ducksalad = assay: Test B flooded paddy test; format: in vivo, Heteranthera limosa; conditions: 1000 g ai/ha, scale 0 to 100 (0 no effect, 100 complete control)
Procedure: as §2

barnyardgrass [3] = assay: Test B flooded paddy test; format: in vivo, Echinochloa crus-galli; conditions: 1000 g ai/ha, scale 0 to 100 (0 no effect, 100 complete control)
Procedure: as §2

[4] = 125 g ai/ha, 100 is complete control
[5] = 125 g ai/ha, visual rating, scale 0 (no effect) to 100 (complete control), postemergence
[6] = postemergence, 500 g ai/ha, scale 0 to 100, 0 is no effect, 100 is complete control
[7] = 125 g ai/ha, visual rating, postemergence
[8] = 500 g ai/ha, scale 0 to 100, 0 no effect, 100 complete control, preemergence
[9] = Postemergence, 500 g ai/ha, scale 0 (no effect) to 100 (complete control)

C#CCNC(=O)c1ccc(F)c(NC(=O)c2nn(C(C)(C)C)nc2CC)c1 [Compound 389]
Plant response rating (0 to 100 scale), Barnyardgrass (barnyardgrass [1]; [4]): 0 | Barnyardgrass plant response rating (barnyardgrass [1]; [5]): 0 | Barnyardgrass plant response rating (barnyardgrass [1]; [6]): 0 | Plant response rating (0 to 100 scale), Surinam Grass (Surinam grass; 125 g ai/ha): 0 | Surinam Grass plant response rating (Surinam grass; [7]): 0 | Surinam Grass plant response rating (Surinam grass; Postemergence, 500 g ai/ha): 10 | Plant response rating (0 to 100 scale), Cocklebur (cocklebur; [4]): 0 | Cocklebur plant response rating (cocklebur; [5]): 0 | Cocklebur plant response rating (cocklebur; [6]): 0 | Plant response rating (0 to 100 scale), Corn (corn; [4]): 0 | Corn plant response rating (corn; [5]): 0 | Corn plant response rating (corn; [6]): 0 | Plant response rating (0 to 100 scale), Crabgrass, Large (large crabgrass; [4]): 0 | Crabgrass, Large plant response rating (large crabgrass; [5]): 0 | Crabgrass, Large plant response rating (large crabgrass; [6]): 10 | Plant response rating (0 to 100 scale), Foxtail, Giant (giant foxtail; [4]): 0 | Foxtail, Giant plant response rating (giant foxtail; [5]): 0 | Foxtail, Giant plant response rating (giant foxtail; [6]): 10 | Plant response rating (0 to 100 scale), Lambsquarters (lambsquarters; 125 g ai/ha): 0 | Lambsquarters plant response rating (lambsquarters; [7]): 10 | Lambsquarters plant response rating (lambsquarters; Postemergence, 500 g ai/ha): 30 | Plant response rating (0 to 100 scale), Morningglory (morningglory; 125 g ai/ha): 0 | Morningglory plant response rating (morningglory; [7]): 0 | Morningglory plant response rating (morningglory; Postemergence, 500 g ai/ha): 0 | Plant response rating (0 to 100 scale), Pigweed (pigweed; 125 g ai/ha): 0 | Pigweed plant response rating (pigweed; [7]): 20 | Pigweed plant response rating (pigweed; Postemergence, 500 g ai/ha): 40 | Plant response rating (0 to 100 scale), Velvetleaf (velvetleaf; 125 g ai/ha): 0 | Velvetleaf plant response rating (velvetleaf; [7]): 0 | Velvetleaf plant response rating (velvetleaf; Postemergence, 500 g ai/ha): 20 | Blackgrass plant response rating (blackgrass; [5]): 0 | Blackgrass plant response rating (blackgrass; [6]): 10 | Wheat plant response rating (wheat; [5]): 0 | Wheat plant response rating (wheat; [8]): 0 | Wheat plant response rating (wheat; [9]): 0 | Oat, Wild plant response rating (wild oat; [7]): 0 | Oat, Wild plant response rating (wild oat; Postemergence, 500 g ai/ha): 0 | Rice plant response rating (rice): 20 | Sedge, Umbrella plant response rating [2]: 30 | Ducksalad plant response rating (ducksalad): 0 | Barnyardgrass plant response rating (barnyardgrass [3]): 0

Cc1nn(C(C)C)nc1C(=O)Nc1cc(C(=O)N2CC=CC2)ccc1F [Compound 402]
Plant response rating (0 to 100 scale), Barnyardgrass (barnyardgrass [1]; [4]): 0 | Barnyardgrass plant response rating (barnyardgrass [1]; [5]): 0 | Barnyardgrass plant response rating (barnyardgrass [1]; [9]): 0 | Plant response rating (0 to 100 scale), Surinam Grass (Surinam grass; 125 g ai/ha): 0 | Surinam Grass plant response rating (Surinam grass; [7]): 0 | Surinam Grass plant response rating (Surinam grass; Postemergence, 500 g ai/ha): 20 | Plant response rating (0 to 100 scale), Cocklebur (cocklebur; [4]): 0 | Cocklebur plant response rating (cocklebur; [5]): 0 | Cocklebur plant response rating (cocklebur; [9]): 0 | Plant response rating (0 to 100 scale), Corn (corn; [4]): 0 | Corn plant response rating (corn; [5]): 0 | Corn plant response rating (corn; [9]): 0 | Plant response rating (0 to 100 scale), Crabgrass, Large (large crabgrass; [4]): 0 | Crabgrass, Large plant response rating (large crabgrass; [5]): 0 | Crabgrass, Large plant response rating (large crabgrass; [9]): 10 | Plant response rating (0 to 100 scale), Foxtail, Giant (giant foxtail; [4]): 0 | Foxtail, Giant plant response rating (giant foxtail; [5]): 0 | Foxtail, Giant plant response rating (giant foxtail; [9]): 20 | Plant response rating (0 to 100 scale), Lambsquarters (lambsquarters; 125 g ai/ha): 0 | Lambsquarters plant response rating (lambsquarters; [7]): 30 | Lambsquarters plant response rating (lambsquarters; Postemergence, 500 g ai/ha): 40 | Plant response rating (0 to 100 scale), Morningglory (morningglory; 125 g ai/ha): 0 | Morningglory plant response rating (morningglory; [7]): 0 | Morningglory plant response rating (morningglory; Postemergence, 500 g ai/ha): 0 | Plant response rating (0 to 100 scale), Pigweed (pigweed; 125 g ai/ha): 0 | Pigweed plant response rating (pigweed; [7]): 0 | Pigweed plant response rating (pigweed; Postemergence, 500 g ai/ha): 10 | Plant response rating (0 to 100 scale), Velvetleaf (velvetleaf; 125 g ai/ha): 0 | Velvetleaf plant response rating (velvetleaf; [7]): 20 | Velvetleaf plant response rating (velvetleaf; Postemergence, 500 g ai/ha): 30 | Blackgrass plant response rating (blackgrass; [5]): 0 | Blackgrass plant response rating (blackgrass; [9]): 0 | Wheat plant response rating (wheat; [5]): 0 | Wheat plant response rating (wheat; [8]): 10 | Wheat plant response rating (wheat; [9]): 0 | Oat, Wild plant response rating (wild oat; [7]): 0 | Oat, Wild plant response rating (wild oat; Postemergence, 500 g ai/ha): 0 | Rice plant response rating (rice): 10 | Sedge, Umbrella plant response rating [2]: 70 | Ducksalad plant response rating (ducksalad): 20 | Barnyardgrass plant response rating (barnyardgrass [3]): 10

CCc1nn(C(C)(C)C)nc1C(=O)Nc1cc(C(=O)N2CC=CC2)ccc1F [Compound 363]
Plant response rating (0 to 100 scale), Barnyardgrass (barnyardgrass [1]; [4]): 0 | Barnyardgrass plant response rating (barnyardgrass [1]; [5]): 0 | Barnyardgrass plant response rating (barnyardgrass [1]; [6]): 0 | Plant response rating (0 to 100 scale), Surinam Grass (Surinam grass; 125 g ai/ha): 0 | Surinam Grass plant response rating (Surinam grass; [7]): 10 | Plant response rating (0 to 100 scale), Cocklebur (cocklebur; [4]): 0 | Cocklebur plant response rating (cocklebur; [5]): 20 | Cocklebur plant response rating (cocklebur; [6]): 30 | Plant response rating (0 to 100 scale), Corn (corn; [4]): 0 | Corn plant response rating (corn; [5]): 0 | Corn plant response rating (corn; [6]): 0 | Plant response rating (0 to 100 scale), Crabgrass, Large (large crabgrass; [4]): 20 | Crabgrass, Large plant response rating (large crabgrass; [5]): 10 | Crabgrass, Large plant response rating (large crabgrass; [6]): 10 | Plant response rating (0 to 100 scale), Foxtail, Giant (giant foxtail; [4]): 20 | Foxtail, Giant plant response rating (giant foxtail; [5]): 10 | Foxtail, Giant plant response rating (giant foxtail; [6]): 10 | Plant response rating (0 to 100 scale), Lambsquarters (lambsquarters; 125 g ai/ha): 0 | Lambsquarters plant response rating (lambsquarters; [7]): 30 | Plant response rating (0 to 100 scale), Morningglory (morningglory; 125 g ai/ha): 0 | Morningglory plant response rating (morningglory; [7]): 50 | Plant response rating (0 to 100 scale), Pigweed (pigweed; 125 g ai/ha): 0 | Pigweed plant response rating (pigweed; [7]): 20 | Plant response rating (0 to 100 scale), Velvetleaf (velvetleaf; 125 g ai/ha): 0 | Velvetleaf plant response rating (velvetleaf; [7]): 10 | Blackgrass plant response rating (blackgrass; [5]): 20 | Blackgrass plant response rating (blackgrass; [6]): 70 | Wheat plant response rating (wheat; [5]): 10 | Wheat plant response rating (wheat; [8]): 30 | Oat, Wild plant response rating (wild oat; [7]): 20 | Rice plant response rating (rice): 60 | Sedge, Umbrella plant response rating [2]: 80 | Ducksalad plant response rating (ducksalad): 90 | Barnyardgrass plant response rating (barnyardgrass [3]): 60
